Columns and labels:
SARS-CoV-2 PsV [1] = type: cell-based
SARS-CoV PsV = type: cell-based
VSV-G PsV = type: cell-based, vesicular stomatitis virus
SARS-CoV-2 PsV [2] = type: cell-based; remark: listed apart in the source
[3] = tested on: SARS-CoV-2 (USA-WA1/2020); type: in vivo, K18-hACE2 mice infected with SARS-CoV-2; conditions: n = 8
[4] = type: in vivo, K18-hACE2 mice; conditions: n = 8
[5] = source not given; cited from earlier work

Question: Which results are given for “ACE2: recombinant human angiotensin-converting enzyme 2, soluble, R&D Systems”?
Answer: inhibition of SARS-CoV-2 PsV infection (SARS-CoV-2 PsV [1]): strongly inhibited; inhibition of SARS-CoV PsV infection (SARS-CoV PsV): strongly inhibited; inhibition of VSV-G PsV infection (VSV-G PsV): This trend is not observed; time at which inhibition equals that of empty filaments (SARS-CoV-2 PsV [2]): ≤ 6 h; viral load in SARS-CoV-2-infected lungs [3]: negligible effect on viral load; body weight loss [4]: similar; pI [5]: ≈ 5.36

Reference: article PMC9743467 (Matter, 2022)
